The source of these data is PubChem BioAssay (NCI).

Several values for one entry are separate records, joined by “and”; a condition that tells them apart may be missing. Equal values may be shown once.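 These data come from cells grown in 96-well plates and exposed to compound for 48 hours at five concentrations. The concentration for 50% growth inhibition is given as GI50. TGI marks complete inhibition of growth.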

Holding throughout (assay): NCI-60 cell line screen, 48 h
Test [1] has as its system CCRF-CEM leukemia.
In test [2] the test system is IGROV1 ovarian.
The subject of test [3] is MOLT-4 leukemia.
The test system of test [4] is OVCAR-8 ovarian.
Test [5] relates to RXF 393 renal.
Test [6] relates to SF-295 CNS.
Test [7] relates to SF-539 CNS.
Test [8] has as its system SK-MEL-28 melanoma.
Test [9] has as its system SNB-19 CNS.
Test [10] deals with BT-549 breast.

Consider `O=C(CCCC(=O)Nc1ccc(Cl)cc1Cl)CC(=O)c1ccc2ccccc2c1`, for which the TGI in test [1], in [2], in [3], in [4], in [5] and in [6] was more than 100 µM in each case. In addition, the TGI in test [7], in test [8] and in test [9] was more than 100 µM in each case.
With `CCCCCCCCOCC(COC(=O)CCCCCCC)OC(=O)CCCCCCC` (centres undefined), the TGI in [1], in test [2], in [3], in test [4], in test [6] and in test [8] was more than 100 µM each time. This compound also returned a TGI in test [9] of more than 100 µM.
With `CC12OC(=O)C(C#N)C1(C)C1C(=O)CCCC12` (centres undefined), the TGI in test [1], in test [2], in test [3], in test [4], in test [5] and in [6] was more than 100 µM each time. The TGI in [7], in test [8] and in [9] was more than 100 µM throughout.
On to `CCOC(=O)/C(=C/c1ccccn1)C(=O)c1ccccc1`, for which the TGI in test [1] is more than 31 µM; in test [2] it was 32.8 µM; in test [3], 26 µM; in test [4] it was 31.4 µM; in [5] it was 24.2 µM; in test [6], 27.6 µM. The results for the TGI in test [7], in test [8] and in test [9] were 31 µM, 27.3 µM and 31.8 µM, respectively.
For the compound `OCC1CC[N-]CC1.OCC1CC[N-]CC1.[Cl][Pt+2]([Cl])([Cl])[Cl]`, the GI50 was 27 µM in test [10]; 25.2 µM in test [2]; 31.1 µM in test [4]; 41.9 µM in test [7]; 60 µM in [8]; 48 µM in [9].
In the case of `Cc1ccccc1C(CCCO)C(=O)O` (centres undefined), the TGI in [1], in test [2], in [3], in test [4], in test [5] and in test [6] was more than 100 µM throughout. Besides, the TGI in test [7], in [8] and in test [9] was more than 100 µM each time.
For `CCc1cccc(CC)c1NC(=O)/C(Cl)=C(/Cl)C(=O)O`, the TGI in [1] was 48.8 µM; in [2], 50.4 µM; in [3], more than 86.9 µM; in [4], 33.3 µM; in [5], 47.2 µM; in test [6] it was more than 100 µM. For the same compound, the TGI was 49.2 µM in test [7], 50.9 µM in [8] and more than 100 µM in test [9].
Turning to `NC1=NC(Cn2nc(-c3ccccc3)c3ccccc3c2=O)=NNC(=O)N1`, the TGI in [1], in [2], in [3], in test [4], in [6] and in test [7] was more than 100 µM throughout. Further, the TGI in test [8] and in test [9] was more than 100 µM in each case.
`Nc1nc(=S)c2c(ncn2CCO)[nH]1`: the TGI in test [1], in test [2], in test [4], in test [5], in test [6] and in [7] was more than 100 µM throughout. Further, the TGI in [8] and in test [9] was more than 100 µM in each case.
Consider `O=NN(CCCl)C(=O)NC1CCC(CC(=O)O)CC1` (centres undefined), for which the TGI in test [1] is > 100 µM and 62.2 µM; in [2], more than 100 µM; in [3] it was > 100 µM and 63.2 µM; in test [4], more than 100 µM; in test [5] it was more than 100 µM; in [6], more than 100 µM. In addition, the TGI in test [7], in test [8] and in test [9] was more than 100 µM in each case.
Consider `CC(=O)Nc1ccc(C2CC(c3ccc([N+](=O)[O-])cc3)=Nc3ccccc3S2=O)cc1` (centres undefined), for which the TGI amounted to 31.8 µM in test [1]; 34.7 µM in [2]; 32.8 µM in [3]; 89.2 µM in test [4]; 32.3 µM in test [5]; 93.2 µM in [6]. Also, the TGI in test [7] was 70.2 µM; in [8], 43.7 µM; in test [9] it was more than 100 µM.
In the case of `COc1ccc(-c2c(C3=NCCCN3)nnn2-c2ccccc2)cc1`, the TGI in test [1], in test [2], in [3], in test [4], in test [5] and in test [6] was more than 100 µM in each case. Further, the TGI in test [7], in test [8] and in test [9] was more than 100 µM in each case.
Consider `CCCC(=O)CC(C)C(=O)C(=O)NC12CC3CC(CC(C3)C1)C2` (centres undefined), for which the TGI in test [1], in test [3], in test [4], in test [5], in [6] and in [8] was more than 100 µM throughout. Besides, the TGI in test [9] was more than 100 µM.
Take `COc1cc(/C=C/c2csnn2)cc(OC)c1OC`: the TGI in [1], in test [2], in test [3], in [4], in test [5] and in test [6] was more than 100 µM each time. Also, the TGI in [7], in test [8] and in test [9] was more than 100 µM throughout.
Take `C[C@H](C(=O)O)C(=O)NC(=O)N(Cc1ccccc1)N=O`: the TGI in test [1], in test [2], in test [3], in [4], in [6] and in test [7] was more than 100 µM throughout. The TGI in [8] and in test [9] was more than 100 µM each time.
Turning to `O=C(COc1ccc(/C=C2\Oc3ccccc3C2=O)cc1)Nc1nc2ccccc2s1`, the GI50 was 6.67 µM in test [10]; 0.17 µM in [1]; 0.321 µM in test [4]; 28.7 µM in test [6]; 3.16 µM in test [7]; 37.5 µM in test [8]. The GI50 in [9] was 41.4 µM. Further, the TGI in test [10] was more than 80.5 µM; in [1], 0.332 µM; in test [4], more than 100 µM; in test [6] it was more than 75.3 µM; in test [7] it was more than 100 µM; in test [8], more than 100 µM. The TGI in test [9] is more than 100 µM.
